Source: ChEMBL document CHEMBL4033778, “Species-Selective Pyrimidineamine Inhibitors of Trypanosoma brucei S-Adenosylmethionine Decarboxylase” (J Med Chem, 2018)

Tests used:
[1] = target: T1, S-adenosylmethionine decarboxylase proenzyme (Homo sapiens, UniProt P17707); test: Inhibition of recombinant human N-terminal His6-tagged AdoMetDC expressed in Escherichia coli BL21/DE3 cells at pH 7.2 by RapidFire-MS-based enzyme activity assay
T1 sequence (P17707 whole entry): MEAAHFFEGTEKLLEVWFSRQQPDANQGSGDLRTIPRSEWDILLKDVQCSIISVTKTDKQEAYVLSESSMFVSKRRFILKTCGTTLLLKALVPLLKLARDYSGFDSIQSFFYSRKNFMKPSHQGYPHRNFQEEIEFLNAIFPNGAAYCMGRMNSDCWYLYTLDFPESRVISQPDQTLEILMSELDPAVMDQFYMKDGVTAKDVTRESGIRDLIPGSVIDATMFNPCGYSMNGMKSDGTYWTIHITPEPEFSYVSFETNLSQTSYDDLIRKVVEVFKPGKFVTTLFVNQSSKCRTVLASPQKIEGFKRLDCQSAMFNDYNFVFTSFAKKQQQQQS

[2] = Inhibition of recombinant Trypanosoma brucei N-terminal His6-tagged AdoMetDC/prozyme hetrodimer expressed in Escherichia coli BL21/DE3 cells at pH 7.2 by RapidFire-MS-based enzyme activity assay
[3] = target: T2, S-adenosylmethionine decarboxylase proenzyme (Homo sapiens) (UniProt P17707); test: Inhibition of recombinant human N-terminal His6-tagged AdoMetDC expressed in Escherichia coli BL21/DE3 cells at 180 uM at pH 7.2 by RapidFire-MS-based enzyme activity assay
T2 sequence (whole entry): T1 sequence (P17707 whole entry)

| Compound | IC50 [1] | inhibition [3] | IC50 [2] |
| --- | --- | --- | --- |
| Cc1cc(Nc2ccc(C(F)(F)F)cc2)nc(N)n1 | > 180 µM | – | > 180 µM |
| Cc1cc(Nc2ccc(Cl)cc2C)nc(N)n1 | > 180 µM | – | > 180 µM |
| Cc1cc(NCc2cc(Cl)cc(Cl)c2)nc(N)n1 | > 180 µM | – | 139 µM |
| Cc1cc(Nc2cc(Cl)cc(S(F)(F)(F)(F)F)c2)nc(N)n1 | > 180 µM | – | 16 µM |
| CCc1cc(Nc2cc(C)nc(N)n2)cc(-c2ccc(F)cc2)c1 | > 180 µM | – | 2.7 µM |
| Nc1ccnc(Nc2cc(Cl)cc(Cl)c2)c1 | > 180 µM | – | > 180 µM |
| Cc1cc(Nc2cc(Cl)cc(-c3ccc(Cl)c(C(F)(F)F)c3)c2)nc(N)n1 | > 180 µM | – | 53 µM |
| Cc1ccc(-c2cc(Cl)cc(Nc3cc(C)nc(N)n3)c2)cc1 | > 63 µM | – | 4.6 µM |
| Cc1cc(Nc2cc(Cl)cc(-c3ccc(O)cc3)c2)nc(N)n1 | > 180 µM | – | 143 µM |
| Cc1cc(Nc2cc(Cl)cc(-c3cncnc3)c2)nc(N)n1 | > 180 µM | – | > 180 µM |
| CC(C)c1cc(Nc2cc(Cl)cc(Cl)c2)nc(N)n1 | > 180 µM | – | 12 µM |
| Cc1cc(Nc2cc(C(F)(F)F)cc(C(F)(F)F)c2)nc(N)n1 | > 180 µM | – | 11 µM |
| Cc1cc(Nc2cc(Cl)cc(-c3cccc(Cl)c3)c2)nc(N)n1 | > 180 µM | – | 81 µM |
| Cc1cc(C)cc(Nc2cc(C)nc(N)n2)c1 | > 180 µM | – | 141 µM |
| Cc1cc(Nc2cc(Cl)c(N3CCCCC3)c(Cl)c2)nc(N)n1 | > 180 µM | – | > 180 µM |
| Cc1cc(Nc2cc(Cl)c(OC(F)F)c(Cl)c2)nc(N)n1 | > 63 µM | – | > 63 µM |
| Cc1cc(N(C)c2cc(Cl)cc(Cl)c2)nc(N)n1 | > 180 µM | – | 81 µM |
| Cc1cc(Nc2cc(Br)cc(S(F)(F)(F)(F)F)c2)nc(N)n1 | > 180 µM | – | 8.7 µM |
| Cc1cc(Nc2cccc(F)c2)nc(N)n1 | > 180 µM | – | > 180 µM |
| Cc1cc(Nc2cc(Cl)cc(-c3cc4ccccc4s3)c2)nc(N)n1 | > 180 µM | – | 41 µM |
| CCc1ccc(Nc2cc(C)nc(N)n2)cc1 | > 180 µM | – | > 180 µM |

| Compound | IC50 [1] | inhibition [3] | IC50 [2] |
| --- | --- | --- | --- |
| Cc1cc(Nc2cc(Cl)cc(Cl)c2)cc(N)n1 | > 180 µM | – | 15 µM |
| Cc1cc(Nc2cc(Cl)cc(-c3ccc(F)cc3)c2)nc(N)n1 | > 21 µM | – | 1.1 µM |
| Cc1cc(Nc2cc(C(=O)Nc3cc(Cl)cc(Cl)c3)cc(C(=O)Nc3cc(Cl)cc(Cl)c3)c2)nc(N)n1 | > 180 µM | – | > 180 µM |
| Cc1cc(Nc2cc(C(C)(C)C)cc(C(C)(C)C)c2)nc(N)n1 | > 63 µM | – | > 63 µM |
| Cc1cc(Nc2cc(Cl)c(C)c(Cl)c2)nc(N)n1 | > 63 µM | – | 20 µM |
| Cc1cc(Nc2ccc(C(C)C)cc2)nc(N)n1 | > 180 µM | – | > 180 µM |
| Nc1cc(Nc2cc(Cl)cc(Cl)c2)ccn1 | > 180 µM | – | 22 µM |
| Nc1nc2c(c(Nc3cc(Cl)cc(Cl)c3)n1)CCC2 | > 21 µM | – | 12 µM |
| Cc1cc(Nc2cc(Cl)cc(-c3cc(C(F)(F)F)cc(C(F)(F)F)c3)c2)nc(N)n1 | > 180 µM | – | 28 µM |
| Cc1cc(Nc2cc(Cl)c(N(C)C)c(Cl)c2)nc(N)n1 | > 180 µM | – | > 180 µM |
| Cc1cc(Nc2cc(Cl)cc(-c3ccccc3Cl)c2)nc(N)n1 | > 180 µM | – | 26 µM |
| CNc1nc(C)cc(Nc2cc(Cl)cc(Cl)c2)n1 | > 63 µM | – | > 63 µM |
| COc1ccc(-c2cc(Cl)cc(Nc3cc(C)nc(N)n3)c2)cc1 | > 180 µM | – | 2.3 µM |
| Cc1cc(Nc2cc(Cl)cc(-c3ccc4c(c3)OCO4)c2)nc(N)n1 | > 21 µM | – | 6.2 µM |
| Nc1nc(Nc2cc(Cl)cc(Cl)c2)cc(C(F)(F)F)n1 | > 180 µM | – | > 180 µM |
| Cc1cc(Nc2cc(Cl)cc(-c3cc4ccccc4c4ccccc34)c2)nc(N)n1 | > 180 µM | – | > 180 µM |
| Cc1cc(Nc2cc(F)cc(Cl)c2)nc(N)n1 | > 180 µM | – | 32 µM |
| Cc1cc(Nc2cc(Cl)cc(-c3ccc4ccccc4c3)c2)nc(N)n1 | > 180 µM | – | 57 µM |
| Cc1cc(Nc2ccccc2C)nc(N)n1 | > 180 µM | – | > 180 µM |
| CCCCOc1cc(Br)cc(Nc2cc(C)nc(N)n2)c1 | > 180 µM | – | 4.5 µM |

More lines, main results first:

| IC50 [1] | inhibition [3] | Compound | IC50 [2] |
| --- | --- | --- | --- |
| > 7 µM | – | Cc1cc(Nc2cc(Cl)cc(-c3ccc(C#N)cc3)c2)nc(N)n1 | 7.6 µM |
| – | 21% | COc1cc(Nc2cc(C)nc(N)n2)cc(OC)c1 | 17 µM |
| – | 29% | Cc1cc(Nc2cc(Cl)cc(C#N)c2)nc(N)n1 | 3.9 µM |
| – | 25% | Cc1nc(N)nc(Nc2cc(Cl)cc(Cl)c2)c1C | 4.8 µM |
| > 180 µM | – | Cc1cc(Nc2cc(Cl)cc(-c3ccc(Cl)c(Cl)c3)c2)nc(N)n1 | 102 µM |
| – | 36% | CCc1cc(Nc2cc(Cl)cc(Cl)c2)nc(N)n1 | 3 µM |
| > 180 µM | – | Cc1cc(Nc2cc(Br)cc(OCC(C)C)c2)nc(N)n1 | 11 µM |
| – | 43% | Cc1cc(Nc2cc(Br)c(F)c(Br)c2)nc(N)n1 | 1.6 µM |
| > 180 µM | – | CSc1ccccc1Nc1cc(C)nc(N)n1 | > 180 µM |
| – | 33% | Cc1cc(Nc2cc(Cl)cc(Br)c2)nc(N)n1 | 2.2 µM |
| > 180 µM | – | Cc1cc(Nc2cc(Cl)cc(-c3cnn(C)c3)c2)nc(N)n1 | 164 µM |
| > 180 µM | – | CCc1cc(Br)cc(Nc2cc(C)nc(N)n2)c1 | 7.6 µM |
| > 180 µM | – | Cc1cc(Sc2cc(Cl)cc(Cl)c2)nc(N)n1 | > 180 µM |
| > 180 µM | – | Cc1cc(Nc2ccc(-c3cc(Cl)cc(Cl)c3)cc2)nc(N)n1 | > 180 µM |
| > 63 µM | – | Cc1cc(Nc2cc(Cl)cc(-c3ccc(Cl)cc3)c2)nc(N)n1 | 1.7 µM |
| > 180 µM | – | Cc1cc(Nc2cc(-c3ccccc3)cc(-c3ccccc3)c2)nc(N)n1 | > 180 µM |
| > 21 µM | – | Cc1cc(Nc2cc(Cl)cc(-c3ccc(C(F)(F)F)cc3)c2)nc(N)n1 | 4.7 µM |
| > 180 µM | – | Cc1cc(Nc2cc(Cl)c(N3CCOCC3)c(Cl)c2)nc(N)n1 | > 180 µM |
| > 63 µM | – | Cc1cc(Nc2cc(Cl)c(Cl)c(Cl)c2)nc(N)n1 | 11 µM |
| > 180 µM | – | Cc1cc(Nc2cc(C(=O)O)cc(C(=O)O)c2)nc(N)n1 | > 180 µM |
| > 180 µM | – | Cc1cc(Nc2cc(F)cc(F)c2)nc(N)n1 | 180 µM |
| > 180 µM | – | Cc1cc(Nc2cc(Cl)cc(Cl)c2)nc(N(C)C)n1 | > 180 µM |
| > 180 µM | – | Nc1nc(Nc2cc(Cl)cc(Cl)c2)cc(N2CCOCC2)n1 | > 180 µM |
| > 180 µM | – | Cc1cc(Nc2ccccc2Br)nc(N)n1 | > 180 µM |
| > 180 µM | – | Nc1cccc(Nc2cc(Cl)cc(Cl)c2)n1 | > 180 µM |
| > 180 µM | – | Cc1cc(Nc2cc(Cl)cc(-c3ccc4nonc4c3)c2)nc(N)n1 | 27 µM |
| > 63 µM | – | Cc1cc(Nc2cc(Cl)c(F)c(Cl)c2F)nc(N)n1 | 2.2 µM |
| > 180 µM | – | Cc1cc(Nc2ccccc2)nc(N)n1 | > 180 µM |
| > 180 µM | – | Cc1cc(Nc2cc(Cl)cc(-c3ccc(-c4ccccc4)cc3)c2)nc(N)n1 | 167 µM |
